Laboratory results taken from patent publication US5051419A, “Prevention or elimination of mycoplasma contamination of animal or plant cell cultures” (Dainippon Pharmaceutical Co., Ltd., priority 1988, dated 1991).
Converted amounts (≈) assume the structure as drawn.

Key:
M. orale CH-19299 = assay: Anti-mycoplasmal activity (MIC, MMC), liquid dilution method; assay type: cell-based, Mycoplasma orale; conditions: Metamycoplasma orale, liquid dilution, M. orale CH-19299; for MBC: CH19299, 120 h, read-out: MMC; for MIC: CH19299, read-out: MIC
Method: The minimum growth inhibitory concentration (MIC, μg/ml) and minimum mycoplasmacidal concentration (MMC, μg/ml) of test chemicals were measured by the liquid dilution method. The method of measuring MIC in this example differs from that used in Test Example 1.
A 1,000 μg/ml aqueous solution of a test chemical was prepared, and diluted to 5 times with a preculture medium. The dilution (200 μg/ml) was serially diluted twofold with the same medium in a 8-well reservoir. Fifty microliters of each diluted solution was distributed in the wells of a microplate. A well to which no test chemical was added was used as a control.
A mycoplasma suspension for inoculation prepared as in Test Example 1 was pipetted in an amount of 50 microliters to each of the wells. The microplates were sealed by a plate seal, shaken by a micromixer, and cultivated at 37° C. for 5 days. In the control to which no test chemical was added, color change of the medium by the growth of mycoplasma was observed after two days from the start of the cultivation. At this time, 3 microliters of the liquid culture was inoculated in drug-free Chanock agar medium by using a Cathra-replicator. The liquid culture and the agar medium were further cultivated at 37° C. for 3 days (anaerobically in the case of M. orale, and aerobically in the case of A. laidlawii and M. arginini). MIC and MMC were determined from the results of observation on the 5th day. MIC was defined as the lowest concentration of the test chemical at which growth of mycoplasma in the drug-containing liquid medium was not noted, and MMC, as that in the drug-free agar medium.

M. orale CH19299 = assay: Anti-mycoplasmal activity (MIC), agar-dilution method; assay type: cell-based, Mycoplasma orale; conditions: Metamycoplasma orale; agar dilution; M. orale CH19299; read-out: MIC
Method: The minimum growth inhibitory concentrations (MIC; μg/ml) of the test chemicals were measured by the agar-dilution method.
(1) Preparation of a mycoplasma suspension for inoculation
A stored frozen suspension of mycoplasma (0.2 to 0.3 ml) was inoculated in 2 to 3 ml of a preculture medium to be described later. It was serially diluted tenfold until the dilution ratio reached 10,000 times. These diluted solutions were cultivated at 37° C. for 2 to 7 days. A culture having the highest dilution ratio was selected from those cultures in which a color change of the media was noted as a result of mycoplasma growth. It was diluted to 100 times with the preculture medium to prepare a mycoplasma suspension for inoculation.
The following preculture media were used.
For other mycoplasma species, Chanock liquid medium (pH 6.8) containing 0.2% arginine was used.
(2) Preparation of agar plates containing the test chemicals
A 1,000 μg/ml aqueous solution of each test chemical was prepared (a difficultly-soluble chemical was dissolved by adding an equimolar amount of sodium hydroxide; the same applies hereinafter). The solution was used as a base solution and its twofold serial dilutions were prepared. The diluted solutions were pipetted on plastic petri dishes each in an amount of 1 ml. The Chanock agar medium (for Mycoplasma hyorhinis, 0.5% mucin was further added) described at page 9 of the above cited "Procedures for Isolation and Identification of Human, Animal and Plant Mycoplasmas" was heated and kept at 55° C. and put in an amount of 9 ml in each of the petri dishes containing the test chemicals and fully mixed with the test chemicals to prepare agar plates containing the test chemicals.
The mycoplasma suspension for inoculation prepared by the procedure described in section (1) was inoculated in an amount of about 3 microliters on each of the chemical-containing agar plates by means of a Cathra-replicator (3 mm pin). The plates on which Mycoplasma pneumoniae, Mycoplasma arginini, and Acholeplasma laidlawii and Mycoplasma hyorhinis were inoculated were tightly packed in a plastic bag together with the plasic petri dishes including water-immersed absorbent cotton. Mycoplasma pneumoniae was aerobically cultivated at 37° C. under highly humid conditions for 7 days; and Mycoplasma arginini and Acholeplasma laidlawii, for 2 days. The other mycoplasma species were cultivated anaerobically for 2 days by using a GasPak anaerobic system (BBL). After the cultivation, growth of mycoplasma were observed under an OLYMPUS microscope (20-100 X). The lowest concentration of the test chemical at which no growth of mycoplasma was noted is defined as MIC.

M. arginini G-230 = assay: Activity of eliminating artificially contaminated mycoplasma from L-929 cells; assay type: cell-based, Mycoplasma arginini
Method: Animal cells, experimentally contaminated by mycoplasma, were cultivated for 4 days in a medium containing the test chemical and then sub-cultivated in a medium to which the test chemical was not added in order to determine whether the mycoplasma re-grew (re-contamination).
(1) Preparation of mycoplasma-contaminated cells
The mycoplasmas described in Table 3 were each pre-cultivated as in Test Example 1, (1). Two milliliters of the cultures were centifuged at 1,500×g for 30 minutes to separate the mycoplasmas. The isolated mycoplasmas were suspended in 2 ml of 10%-FBS-MEM medium (Eagle's minimum essential medium supplemented with 10% fetal bovine serum and 100 U/ml of penicillin G).
Separately, mouse fibroblast cells L-929 was suspended in 10%-FBS-MEM medium so that their density became 2.5×10^4 /ml. Four milliliters of the suspension was put in a petri dish (diameter 6 cm) for tissue culture including two circular cover glasses (diameter 1.8 cm), and then 1 ml of the mycoplasma suspension described above was added. The mixture was incubated at 37° C. in 5% CO2 humidified atmosphere for 3 days, and then sub-cultivated twice in order to obtain mycoplasma-contaminated cells. Mycoplasma-contamination was confirmed by the highly specific DNA-fluorochromic staining method (the above cited "Procedures for Isolation and identification of Human, Animal and Plant Mycoplasmas", pages 95-97).
(2) Experiment of eliminating mycoplasma contamination
Mycoplasma-contaminated L-929 cells were cultivated as described in the preceding section. A 1,000 μg/ml aqueous solution of a test chemical was prepared, and diluted to predetermined concentrations with Eagle's minimum essential medium. The diluted solutions were added to the culture medium. Two petri dishes were used for each concentration of the test chemical, and two circular cover glasses were put in one of them for examination of mycoplasma. No cover glass was put in the other petri dish, and it was used for subcultivation. Cultivation in the test chemical-containing medium was carried out for 4 days, and thereafter, the cultivation was continued for 3 weeks in a drug-free medium. Medium replacement was effected every 3 to 4 days, and subcultivation was carried out once a week. Examination for mycoplasma contamination was performed on the 4th and 7th days, and thereafter every week. The mycoplasmas were detected by the highly specific DNA-fluorochromic staining method.

Compound | MBC (M. orale CH-19299) [µg/mL] | MIC (M. orale CH-19299) [µg/mL] | MIC (M. orale CH19299) [µg/mL] | mycoplasma elimination (M. arginini G-230; 0.2 μg/ml, day 0) | mycoplasma elimination (M. arginini G-230; 0.2 μg/ml, day 4) | mycoplasma elimination (M. arginini G-230; 0.2 μg/ml, day 7) | mycoplasma elimination (M. arginini G-230; 0.2 μg/ml, day 14) | mycoplasma elimination (M. arginini G-230; 0.2 μg/ml, day 28) | also measured
CC1CN(c2c(F)c(N)c3c(=O)c(C(=O)O)cn(C4CC4)c3c2F)CCN1 (stereo not shown) [Compound 1] | 0.39 (≈ 1.03 µM) | 0.39 (≈ 1.03 µM) | 0.2 (≈ 0.529 µM) | + | + | + | + | + | mycoplasma elimination (M. arginini G-230; 0.39 μg/ml, day 0): +; mycoplasma elimination (M. arginini G-230; 0.39 μg/ml, day 4): -; mycoplasma elimination (M. arginini G-230; 0.39 μg/ml, day 7): -; mycoplasma elimination (M. arginini G-230; 0.39 μg/ml, day 14): -; mycoplasma elimination (M. arginini G-230; 0.39 μg/ml, day 28): -
CN(C)c1ccc(O)c2c1C[C@H]1C[C@H]3[C@H](N(C)C)C(O)=C(C(N)=O)C(=O)[C@@]3(O)C(O)=C1C2=O [Compound 3, minocycline] | 25 (≈ 54.6 µM) | 0.39 (≈ 0.852 µM) | 0.1 (≈ 0.219 µM) |  |  |  |  |  | mycoplasma elimination (M. arginini G-230; 12.5 μg/ml, day 0): +; mycoplasma elimination (M. arginini G-230; 12.5 μg/ml, day 4): -; mycoplasma elimination (M. arginini G-230; 12.5 μg/ml, day 7): -; mycoplasma elimination (M. arginini G-230; 12.5 μg/ml, day 14): +; mycoplasma elimination (M. arginini G-230; 12.5 μg/ml, day 28): +
NCC1CN(c2c(F)c(N)c3c(=O)c(C(=O)O)cn(C4CC4)c3c2F)CCO1 (stereo not shown) [Compound A, 5-amino-7-(2-aminomethylmorpholino)-1-cyclopropyl-6,8-difluoro-1,4-dihydro-4-oxoquinoline-3-carboxylic acid] | 0.05 (≈ 0.127 µM) | 0.05 (≈ 0.127 µM) | 0.05 (≈ 0.127 µM) | + | - | - | - | - | mycoplasma elimination (M. arginini G-230; 0.1 μg/ml, day 0): +; mycoplasma elimination (M. arginini G-230; 0.1 μg/ml, day 4): +; mycoplasma elimination (M. arginini G-230; 0.1 μg/ml, day 7): +; mycoplasma elimination (M. arginini G-230; 0.1 μg/ml, day 14): +; mycoplasma elimination (M. arginini G-230; 0.1 μg/ml, day 28): +
